{"source": "patent US4788202A", "about": "“Sulphonamide derivatives as α2 -adrenoceptor antagonists” (John Wyeth & Brother Limited, priority 1985, dated 1988)", "key": {"α2 -adrenoceptor": {"biological_target": "T1, α2 -adrenoceptor (Rattus norvegicus, UniProt P22909)", "T1 construct": "rat field stimulated vas deferens preparation; from tissue; host or cells: rat vas deferens, field stimulated", "T1 sequence (P22909 1-465)": "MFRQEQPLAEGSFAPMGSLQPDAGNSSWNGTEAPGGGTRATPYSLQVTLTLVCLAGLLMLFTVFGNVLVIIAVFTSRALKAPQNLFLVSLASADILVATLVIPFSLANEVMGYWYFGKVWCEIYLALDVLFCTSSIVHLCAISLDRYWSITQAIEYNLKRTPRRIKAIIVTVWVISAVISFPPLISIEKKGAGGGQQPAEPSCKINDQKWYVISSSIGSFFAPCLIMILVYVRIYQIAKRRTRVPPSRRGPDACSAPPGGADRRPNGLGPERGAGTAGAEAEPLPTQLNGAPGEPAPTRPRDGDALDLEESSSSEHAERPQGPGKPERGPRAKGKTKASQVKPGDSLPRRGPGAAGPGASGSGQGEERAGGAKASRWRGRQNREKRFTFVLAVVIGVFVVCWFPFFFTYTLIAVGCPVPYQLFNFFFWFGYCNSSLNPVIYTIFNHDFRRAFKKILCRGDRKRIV", "assay": "α2-adrenoceptor antagonistic activity on the rat field stimulated vas deferens preparation (modified method of Drew)", "source_text": "(§1) The compounds of the invention may be tested for α2 -adrenoceptor antagonistic activity on the rat field stimulated vas deferens preparation using a modification of the method of Drew, Eur. J. Pharmac., 1977,42, 123-130 as described in our GB patent No. 2136804A Specification and for the α1 -antagonist activity by the method based on that of Gillespie Br. J. Pharmac 1972, 45 404-416, as also described in GB patent specification No. 2136804A."}, "α1 -adrenoceptor": {"biological_target": "T2, α1 -adrenoceptor (Rattus norvegicus, UniProt P43140)", "T2 construct": "method based on that of Gillespie Br. J. Pharmac 1972, 45 404-416; from tissue", "T2 sequence (P43140 1-466)": "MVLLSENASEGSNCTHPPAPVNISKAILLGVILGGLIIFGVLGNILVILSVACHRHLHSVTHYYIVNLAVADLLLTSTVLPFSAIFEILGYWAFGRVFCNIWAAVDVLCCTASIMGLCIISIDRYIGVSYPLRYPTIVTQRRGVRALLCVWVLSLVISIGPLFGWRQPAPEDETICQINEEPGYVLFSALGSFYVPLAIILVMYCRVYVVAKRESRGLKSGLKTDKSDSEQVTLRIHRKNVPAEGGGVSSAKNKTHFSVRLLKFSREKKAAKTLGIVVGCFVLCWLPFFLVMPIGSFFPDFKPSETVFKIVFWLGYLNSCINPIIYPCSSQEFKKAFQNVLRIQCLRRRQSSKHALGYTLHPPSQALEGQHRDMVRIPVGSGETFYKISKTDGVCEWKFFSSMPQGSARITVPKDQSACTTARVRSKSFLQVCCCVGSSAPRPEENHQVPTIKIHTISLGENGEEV", "assay": "α1-adrenoceptor antagonist activity by a method based on that of Gillespie", "conditions": "as described in GB 2136804A, read-out: pA2 for α1 -adrenoceptor antagonistic activity (converted)", "source_text": "as §1"}}}
{"compound": "CS(=O)(=O)NCCN([C@@H]1CCN2CCc3c(oc4ccccc34)[C@@H]2C1)S(C)(=O)=O", "note": "(relative stereo) [Example 2, N-[(2β,12bα)-1,3,4,6,7,12b-Hexahydro-2H-benzo[b]furo [2,3-a]quinolizin-2-yl]-N-(2-methanesulphonamidoethyl) methanesulphonamide]", "values": [{"measurement": "Kb", "setting": "α2 -adrenoceptor; rat field stimulated vas deferens preparation, read-out: pA2 for α2 -adrenoceptor antagonist activity (converted)", "result": 8.51, "unit": "nM"}, {"measurement": "α2 /α1 selectivity [antilog of (α2 pA2 - α1 pA1)]", "setting": "α2 -adrenoceptor; ratio from α2 and α1 pA2 values", "result": 32}, {"measurement": "Kb", "setting": "α1 -adrenoceptor", "result": 275, "unit": "nM"}]}
